Test results: PMC4805251, “Novel Antimicrobial Peptides EeCentrocins 1, 2 and EeStrongylocin 2 from the Edible Sea Urchin Echinus esculentus Have 6-Br-Trp Post-Translational Modifications” (PLoS ONE, 2016)
Values after ≈ are worked out from the molar mass of the structure shown. Where two headings read alike, the source gives them in different places. Square brackets hold non-standard residues; d marks the D form. Peptide text beside a SMILES is read from it. Trp(6-Br) = N[C@@H](Cc1c[nH]c2cc(Br)ccc12)C(=O)O

How the values were obtained:
Format in all cases: cell-based
[1] = system: Pseudomonas aeruginosa #1 (ATCC 27853)
Source text: (§1) Organic phase extract, SPE eluates and HPLC-fractions were screened for antibacterial activity against two strains of Gram-positive and two strains of Gram-negative bacteria; Corynebacterium glutamicum (ATCC 13032), Staphylococcus aureus (ATCC 9144), Pseudomonas aeruginosa #1 (ATCC 27853) and Escherichia coli #1 (ATCC 25922). For extended antimicrobial bioactivity screening, the following bacterial strains were used, three strains of Gram-positive bacteria; S. epidermidis #1 (5179-R1) kindly provided by Holger Rohde, S. epidermidis #2, RP62A (ATCC 35984) and Bacillus subtilis (ATCC 23857) in addition to the Gram-negative P. aeruginosa #2, PA 01 (ATCC 15692, DSM 19880) and E. coli #2, NR 698 (MC4100/ptD4213).
(§2) Cultures stored at -80°C were smeared onto agar plates and cultured for 24 h at 35°C. One colony of each bacterial strain was transferred to 5 ml liquid Müller-Hinton (MH, Difco, Lawrence, KS, USA) medium in a glass tube and left shaking at room temperature overnight at 600 rpm. The cultures of actively growing bacteria (20 μl) were further inoculated in 5 ml MH medium and left shaking for 2 h at room temperature. The antibacterial assays were performed as previously described by. Briefly, the bacterial cultures were diluted with medium to 1.3–1.5 × 10^4 bacteria/ml final concentrations and an aliquot of 50 μl was added to each well in 96-well Nunclon^TM microtiter plates (Nagle Nunc Int., Denmark) preloaded with 50 μl test sample solutions, i.e. extracts, eluates or peptides.
(§3) The test plates were incubated for 24 h at 35°C with optical density (OD595) recorded every hour using an Envision 2103 multilabel reader, controlled by the Wallac Envision manager (PerkinElmer, CT, USA). Antibacterial activity was defined as a sample showing >90% inhibition (as measured by optical density) compared to the negative (growth) controls, consisting of bacteria and water. Oxytetracycline (20 μM) served as a positive (inhibition) control. The minimum inhibitory concentration (MIC) was defined as the lowest concentration of a sample displaying >90% inhibition.
(§4) ACN-phases and SPE eluates were tested with two-fold serial dilutions ranging from 5.0 to 0.005 mg/ml (5.0, 2.5, 1.25, 0.63, 0.31, 0.16, 0.08, 0.04, 0.02, 0.01, 0.005 mg/ml) whereas HPLC-fractions were tested undiluted for antibacterial activity. Pure, native peptides and synthetic peptides (described in section 2.11) were tested for antimicrobial activity in concentrations ranging from 100 to 0.1 μM in two-fold serial dilutions (100, 50, 25, 12.5, 6.25, 3.13, 1.56, 0.78, 0.39, 0.20, 0.10 μM). Antimicrobial assays involving natural peptides (i.e. fractionated natural material) were run only once due to limited quantities, whereas all other assays were run in triplicates.

[2] = system: E. coli #2, NR 698 (MC4100/ptD4213)
Source text: as §1, §2, §3, §4

[3] = system: Staphylococcus aureus (ATCC 9144); conditions: for MIC S. aureus: ATCC 9144, 24 h
Source text: as §1, §2, §3, §4

[4] = system: S. epidermidis #2, RP62A (ATCC 35984); conditions: for MIC S. epidermidis #2: ATCC 35984, 24 h
Source text: as §1, §2, §3, §4

[5] = system: S. epidermidis #1 (5179-R1); conditions: for MIC S. epidermidis #1: #1 (5179-R1, 24 h)
Source text: as §1, §2, §3, §4

[6] = system: P. aeruginosa #2, PA 01 (ATCC 15692, DSM 19880); conditions: for MIC P. aeruginosa #2: ATCC 15692, 24 h
Source text: as §1, §2, §3, §4

[7] = system: Corynebacterium glutamicum (ATCC 13032); conditions: for MIC C. glutamicum: ATCC 13032, 24 h
Source text: as §1, §2, §3, §4

[8] = system: Escherichia coli #1 (ATCC 25922)
Source text: as §1, §2, §3, §4

[9] = system: Bacillus subtilis (ATCC 23857)
Source text: as §1, §2, §3, §4

[10] = system: Cladosporium sp.; conditions: for MIC Cladosporium sp.: 24 h
Method: (§5) The synthetic peptides (see section 2.11) were also screened for antifungal activity against Candida albicans (ATCC 10231), Saccharomyces cerevisiae, Rhodotorula sp., Aureobasidium pullulans and Cladosporium sp. The antifungal assay was performed as described previously. Briefly, fungal spores were dissolved in potato dextrose broth (Difco, Lawrence, KS, USA) to a concentration of 4 × 10^5 spores/ml. The spores (50 μl) were inoculated on 96-well Nunclon^TM microtiter plates containing the synthetic peptides (50 μl) dissolved in MQ-H2O. […] MIC was defined as the lowest concentration of peptide giving no visible fungal growth. The negative (growth) control contained medium and fungal solution.
as §4

[11] = system: Aureobasidium pullulans; conditions: for MIC A. pullulans: 24 h
Method: as §5, §4

[12] = system: Candida albicans (ATCC 10231); conditions: for MIC C. albicans: ATCC 10231, 24 h
Method: as §5, §4

[13] = system: Saccharomyces cerevisiae; conditions: for MIC S. cerevisiae: 24 h
Method: as §5, §4

[14] = system: Rhodotorula sp.
Method: as §5, §4

[15] = system: Gram-positive and Gram-negative bacteria (tested strains); conditions: 24 h
Source text: as §1, with “(MC4100/ptD4213). […]” for “(MC4100/ptD4213).”
The test plates were incubated for 24 h at 35°C with optical density (OD595) recorded every hour using an Envision 2103 multilabel reader, controlled by the Wallac Envision manager (PerkinElmer, CT, USA). […]
ACN-phases and SPE eluates were tested with two-fold serial dilutions ranging from 5.0 to 0.005 mg/ml (5.0, 2.5, 1.25, 0.63, 0.31, 0.16, 0.08, 0.04, 0.02, 0.01, 0.005 mg/ml) whereas HPLC-fractions were tested undiluted for antibacterial activity. […] Antimicrobial assays involving natural peptides (i.e. fractionated natural material) were run only once due to limited quantities, whereas all other assays were run in triplicates.

CC[C@H](C)[C@H](NC(=O)[C@@H](N)CC(=O)O)C(=O)NCC(=O)N[C@@H](CCCCN)C(=O)N[C@@H](Cc1ccc(O)cc1)C(=O)N[C@@H](CS)C(=O)NCC(=O)N[C@@H](Cc1ccc(O)cc1)C(=O)N[C@@H](C)C(=O)N[C@@H](Cc1c[nH]cn1)C(=O)N[C@@H](C)C(=O)N[C@@H](CC(C)C)C(=O)N[C@@H](CC(N)=O)C(=O)O (stereo in doubt) [EeCentrocin 1 LC]
MIC P. aeruginosa #1 ([1]; ATCC 27853, 24 h): >100 µM | MIC E. coli #2 ([2]; MH medium, 24 h at 35°C, OD595, >90% inhibition, value of Table 2, triplicates): >100 µM | MIC S. aureus [3]: >100 µM | MIC S. epidermidis #2 [4]: >100 µM | MIC S. epidermidis #1 [5]: >100 µM | MIC P. aeruginosa #2 [6]: >100 µM | MIC C. glutamicum [7]: >100 µM | MIC E. coli #1 ([8]; ATCC 25922, 24 h): >100 µM | MIC B. subtilis ([9]; ATCC 23857, 24 h): >100 µM | MIC Cladosporium sp. [10]: >100 µM | MIC A. pullulans [11]: >100 µM | MIC C. albicans [12]: >100 µM | MIC S. cerevisiae [13]: >100 µM | MIC Rhodotorula sp. ([14]; potato dextrose broth, 24 h at room temperature, visual, no visible fungal growth, value of Table 2, triplicates): >100 µM

CC(C)C[C@H](NC(=O)[C@H](C)NC(=O)CNC(=O)[C@H](CS)NC(=O)[C@H](C)NC(=O)[C@H](CCCCN)NC(=O)[C@H](CO)NC(=O)[C@H](C)NC(=O)[C@H](Cc1ccccc1)NC(=O)CNC(=O)[C@H](C)NC(=O)[C@@H](NC(=O)[C@H](CCCCN)NC(=O)[C@H](CCCNC(=N)N)NC(=O)CNC(=O)[C@H](C)NC(=O)[C@H](CC(N)=O)NC(=O)[C@H](CCCNC(=N)N)NC(=O)[C@@H](NC(=O)[C@H](CCCCN)NC(=O)[C@H](CC(=O)O)NC(=O)[C@@H](NC(=O)[C@@H](NC(=O)[C@H](CCCNC(=N)N)NC(=O)[C@H](CCCNC(=N)N)NC(=O)[C@H](Cc1c[nH]c2cc(Br)ccc12)NC(=O)[C@H](Cc1c[nH]c2cc(Br)ccc12)NC(=O)CN)[C@@H](C)O)C(C)C)C(C)C)C(C)C)C(=O)NCC(=O)N[C@@H](Cc1c[nH]cn1)C(=O)O [EeCentrocin 1 HC-diBr] (H-G[Trp(6-Br)][Trp(6-Br)]RRTVDKVRNAGRKVAGFASKACGALGH-OH)
MIC range towards bacteria [15]: 0.78 to 6.25 µM | MIC raw data P. aeruginosa #1 ([1]; parallel 1 of three): 1.56 µM (≈ 5.33 µg/mL) | MIC raw data P. aeruginosa #1 ([1]; parallel 2 of three): 1.56 µM (≈ 5.33 µg/mL) | MIC raw data P. aeruginosa #1 ([1]; parallel 3 of three): 1.56 µM (≈ 5.33 µg/mL) | MIC raw data E. coli #2 ([2]; parallel 1 of three): 1.56 µM (≈ 5.33 µg/mL) | MIC raw data E. coli #2 ([2]; parallel 2 of three): 1.56 µM (≈ 5.33 µg/mL) | MIC raw data E. coli #2 ([2]; parallel 3 of three): 0.78 µM (≈ 2.66 µg/mL) | MIC S. aureus [3]: 3.13 µM (≈ 10.7 µg/mL) | MIC raw data S. aureus ([3]; parallel 1 of three): 3.13 µM (≈ 10.7 µg/mL) | MIC raw data S. aureus ([3]; parallel 2 of three): 3.13 µM (≈ 10.7 µg/mL) | MIC raw data S. aureus ([3]; parallel 3 of three): 1.56 µM (≈ 5.33 µg/mL) | MIC S. epidermidis #2 [4]: 3.13 µM (≈ 10.7 µg/mL) | MIC raw data S. epidermidis #2 ([4]; parallel 1 of three): 3.13 µM (≈ 10.7 µg/mL) | MIC raw data S. epidermidis #2 ([4]; parallel 2 of three): 3.13 µM (≈ 10.7 µg/mL) | MIC raw data S. epidermidis #2 ([4]; parallel 3 of three): 3.13 µM (≈ 10.7 µg/mL) | MIC S. epidermidis #1 [5]: 6.25 µM (≈ 21.3 µg/mL) | MIC raw data S. epidermidis #1 ([5]; parallel 1 of three): 6.25 µM (≈ 21.3 µg/mL) | MIC raw data S. epidermidis #1 ([5]; parallel 2 of three): 6.25 µM (≈ 21.3 µg/mL) | MIC raw data S. epidermidis #1 ([5]; parallel 3 of three): 6.25 µM (≈ 21.3 µg/mL) | MIC P. aeruginosa #2 [6]: 3.13 µM (≈ 10.7 µg/mL) | MIC raw data P. aeruginosa #2 ([6]; parallel 1 of three): 3.13 µM (≈ 10.7 µg/mL) | MIC raw data P. aeruginosa #2 ([6]; parallel 2 of three): 3.13 µM (≈ 10.7 µg/mL) | MIC raw data P. aeruginosa #2 ([6]; parallel 3 of three): 3.13 µM (≈ 10.7 µg/mL) | MIC C. glutamicum [7]: 0.78 µM (≈ 2.66 µg/mL) | MIC raw data C. glutamicum ([7]; parallel 1 of three): 0.78 µM (≈ 2.66 µg/mL) | MIC raw data C. glutamicum ([7]; parallel 2 of three): 0.78 µM (≈ 2.66 µg/mL) | MIC raw data C. glutamicum ([7]; parallel 3 of three): 0.39 µM (≈ 1.33 µg/mL) | MIC raw data E. coli #1 ([8]; parallel 1 of three): 1.56 µM (≈ 5.33 µg/mL) | MIC raw data E. coli #1 ([8]; parallel 2 of three): 1.56 µM (≈ 5.33 µg/mL) | MIC raw data E. coli #1 ([8]; parallel 3 of three): 0.78 µM (≈ 2.66 µg/mL) | MIC raw data B. subtilis ([9]; parallel 1 of three): 1.56 µM (≈ 5.33 µg/mL) | MIC raw data B. subtilis ([9]; parallel 2 of three): 1.56 µM (≈ 5.33 µg/mL) | MIC raw data B. subtilis ([9]; parallel 3 of three): 0.78 µM (≈ 2.66 µg/mL) | MIC Cladosporium sp. [10]: >100 µM | MIC raw data Cladosporium sp. ([10]; parallel 1 of three): >100 µM | MIC raw data Cladosporium sp. ([10]; parallel 2 of three): >100 µM | MIC raw data Cladosporium sp. ([10]; parallel 3 of three): >100 µM | MIC A. pullulans [11]: 6.25 µM (≈ 21.3 µg/mL) | MIC raw data A. pullulans ([11]; parallel 1 of three): 6.25 µM (≈ 21.3 µg/mL) | MIC raw data A. pullulans ([11]; parallel 2 of three): 6.25 µM (≈ 21.3 µg/mL) | MIC raw data A. pullulans ([11]; parallel 3 of three): 6.25 µM (≈ 21.3 µg/mL) | MIC C. albicans [12]: 50 µM (≈ 171 µg/mL) | MIC raw data C. albicans ([12]; parallel 1 of three): 50 µM (≈ 171 µg/mL) | MIC raw data C. albicans ([12]; parallel 2 of three): 50 µM (≈ 171 µg/mL) | MIC raw data C. albicans ([12]; parallel 3 of three): 50 µM (≈ 171 µg/mL) | MIC S. cerevisiae [13]: >100 µM | MIC raw data S. cerevisiae ([13]; parallel 1 of three): >100 µM | MIC raw data S. cerevisiae ([13]; parallel 2 of three): >100 µM | MIC raw data S. cerevisiae ([13]; parallel 3 of three): >100 µM | MIC raw data Rhodotorula sp. ([14]; parallel 1 of three): 12.5 µM (≈ 42.7 µg/mL) | MIC raw data Rhodotorula sp. ([14]; parallel 2 of three): 12.5 µM (≈ 42.7 µg/mL) | MIC raw data Rhodotorula sp. ([14]; parallel 3 of three): 12.5 µM (≈ 42.7 µg/mL)
